These results are taken from US20110269786A1, “TREATMENT OF MAJOR ADVERSE CARDIAC EVENTS AND ACUTE CORONARY SYNDROME IN DIABETIC PATIENTS USING SECRETORY PHOSPHOLIPASE A2 (SPLA2) INHIBITOR OR SPLA2 INHIBITOR COMBINATION THERAPIES” (priority 2010, published 2011).

For data set [1] the following is noted: in vivo; cited from earlier work.
For data set [2] the following is noted: cited from earlier work.
Data set [3] in a line: Clinical trial in post-ACS subjects: MACE occurrence in diabetic subpopulation. The note with it: cumulative at 16 weeks.
Method: 625 adult (18 years of age or older) human subjects who had recently experienced an index ACS event (UA, NSTEMI, or STEMI) were randomized to receive placebo or A-002 at 500 mg once daily via oral administration in a double-blinded manner. A-002 was delivered in the form of two 250 mg tablets. In addition, all subjects received atorvastatin at 80 mg once daily via oral administration of a single tablet.
Subjects were excluded if they were receiving statin therapy at maximum recommended or tolerated dosage (i.e., 40-80 mg QD for atorvastatin, fluvastatin, lovastatin, pravastatin, or simvastatin, or 20-40 mg QD rosuvastatin) at the time of the index ACS event. During the trial, subjects were prevented from using any lipid-lowering therapy other than 80 mg atorvastatin and/or A-002.
For purposes of this study, MACEs included all-cause mortality, non-fatal MI, documented UA requiring urgent hospitalization, revascularization occurring 60 days or more after the initial index ACS event, and non-fatal stroke. Subjects were evaluated at various timepoints after randomization and at study completion. Each evaluation included measurement of serum LDL levels and recordation of any MACEs or less severe adverse events occurring since the previous evaluation. In addition, certain evaluation periods included measurement of one or more of hs-CRP, sPLA2, IL-6, and/or other biomarker levels, vital signs, weight, and/or waist circumference. […] This final evaluation included at least a complete physical examination, a 12-lead ECG reading, measurement of LDL, hs-CRP, sPLA2, and IL-6 levels, and recordation of any MACEs during the study period.
The conditions of data set [4]: 80 mg atorvastatin; subjects that had recently experienced an ACS event; cited from earlier work.
Data set [5] can be described thus: Clinical trial in post-ACS subjects: MACE occurrence in ITT population. The format is in vivo, human. Particulars: at 16 weeks. As to the method: A-002 was delivered in the form of two 250 mg tablets. In addition, all subjects received atorvastatin at 80 mg once daily via oral administration of a single tablet.
Subjects were randomized within 96 hours of hospital admission for an index ACS event, or within 96 hours of index ACS event diagnosis if already hospitalized. Prior to randomization, subjects were screened for pertinent medical history, and baseline levels of LDL and hs-CRP were measured. Baseline sPLA2 levels were also measured in a random subset of subjects. Percutaneous revascularization, if required or planned for a particular subject, was performed prior to randomization.
Subjects were excluded if they were receiving statin therapy at maximum recommended or tolerated dosage (i.e., 40-80 mg QD for atorvastatin, fluvastatin, lovastatin, pravastatin, or simvastatin, or 20-40 mg QD rosuvastatin) at the time of the index ACS event. […]
For purposes of this study, MACEs included all-cause mortality, non-fatal MI, documented UA requiring urgent hospitalization, revascularization occurring 60 days or more after the initial index ACS event, and non-fatal stroke. […] This final evaluation included at least a complete physical examination, a 12-lead ECG reading, measurement of LDL, hs-CRP, sPLA2, and IL-6 levels, and recordation of any MACEs during the study period.

Molecules are shown by their SMILES.

For `CCc1c(C(=O)C(N)=O)c2c(OCC(=O)OC)cccc2n1Cc1ccccc1` [A-002, [[3-(2-Amino-1,2-dioxoethyl)-2-ethyl-1-(phenylmethyl)-1H-indol-4-yl]oxy]acetic acid methyl ester], in data set [1], the “absorption and conversion to active molecule” value was “rapidly absorbed and hydrolyzed to the active A-001 molecule”; the “terminal half-life (t1/2)” value is reported as “approximately ten”. The “effect on total cholesterol, LDL-C, total LDL-C particle, and small LDL-C particle levels” value in data set [2] (once- or twice-daily administration, stable CVD population, diabetic and high baseline LDL-C subpopulations) is given as “decreases”. Moreover, the “effect on levels of inflammatory markers such as hs-CRP and sPLA2” value in data set [2] (stable populations) was “decreases”.

Regarding `CC(C)c1c(C(=O)Nc2ccccc2)c(-c2ccccc2)c(-c2ccc(F)cc2)n1CC[C@@H](O)C[C@@H](O)CC(=O)O` [Placebo (atorvastatin only), atorvastatin], in data set [3], the “Death, % of subjects” value is on record as 3.4%; the “Death, number of subjects” value came to 3; the “MI, % of subjects” value is 0.0%; the “MI, number of subjects” value is 0. In addition, in data set [3], the “Revascularization ≧ 60 days, % of subjects” value was determined as 0.0%; the “Revascularization ≧ 60 days, number of subjects” value is 0; the “Stroke, % of subjects” value amounted to 0.0%; the “Stroke, number of subjects” value is 0. Moreover, in data set [3], the “Total MACEs, % of subjects” value is recorded as 6.9%; the “UA requiring hospitalization, % of subjects” value is listed as 3.4%; the “UA requiring hospitalization, number of subjects” value was found to be 3. In data set [4], the “absolute reduction in death, non-fatal MI, cardiac arrest with resuscitation, or worsening symptomatic myocardial ischemia” value was 2.6% and the “relative reduction in death, non-fatal MI, cardiac arrest with resuscitation, or worsening symptomatic myocardial ischemia” value was 16%. Besides, in data set [5], the “% of subjects who experienced a MACE” value was determined as 6.1%.
